Source: patent publication US20130210852A1, “METHODS FOR TREATING INFECTION” (priority 2010, published 2013)
In brackets after ≈: the same amount, converted by molar mass. Entries after “also recorded” stand apart in the source; their conditions may differ. Like-named read-outs stand apart in the source and are kept apart here.

What was measured:
[1] = test system: EAEC strain O42 adherence to HEp-2 cells; assay: HEp-2 cell attachment assay (microscopy after Wright-Giemsa staining); assay type: cell-based, human; details: HEp-2 cells incubated 24 h with antibiotic, washed, then EAEC 3 h
[2] = test system: EAEC strain O42 adherence to HEp-2 cells; assay type: cell-based, human
[3] = test system: EAEC strain O42 adherence to HeLa cells; assay type: cell-based, human; details: 24 h pretreatment with 64 mg (FIG. 2: 64 μg/ml), EAEC 3 h
[4] = test system: EAEC strain O42 adherence to A549 cells; assay type: cell-based, human; details: 24 h pretreatment with 64 mg (FIG. 2: 64 μg/ml), EAEC 3 h
[5] = test system: B. anthracis Sterne strain 7702 spores on A549 cells; assay type: cell-based, human; details: A549 cells pretreated 24 h, spores 1 h
[6] = test system: EAEC adherence with dialyzed conditioned medium of HEp-2 cells; assay: Effect of dialyzed HEp-2 supernatants on EAEC adherence; assay type: cell-based, human; parameters: dose or concentration left out as unconfirmed; details: HEp-2 treated 24 h, supernatant dialyzed; chambers with or without HEp-2 cells, 3 h
Protocol: HEp-2 cells were cultured in T-175 flasks as described above. […] After 24 h, the medium was collected, loaded into regenerated cellulose dialysis tubing (cutoff, 6 to 8 kDa; Spectra/Por, Rancho Domiguez, Calif.), and dialyzed against 4 liters of PBS changed four times. Each dialysis step lasted at least 6 h and was carried out at 4° C. Dialyzed supernatants were either used immediately in adherence assays or stored at −20° C. until use.
The effect of supernatants on EAEC adherence was determined by mixing EAEC with the dialyzed media from the different antibiotic (or control) treatment groups and adding the bacteria to HEp-2 cells cultured in chambered slides or to chambered slides with no HEp-2 cells. Adherence was visualized microscopically as described above.

[7] = test system: enterotoxigenic E coli strains; assay: MIC against rifaximin by agar dilution, ETEC isolates; assay type: cell-based; details: Escherichia coli
Protocol: (§1) Five enterotoxigenic E coli strains, 2 enteroaggregative E coli strains, and 1 S sonnei isolate were included in the study. The isolates had been identified previously from patients with TD acquired in Guadalajara, Mexico, during the summer of 2004 (5). […] The susceptibility of all isolates to rifaximin was determined by agar dilution methodology following the recommendations of the Clinical and Laboratory Standards Institute.

S sonnei isolate = assay: MIC against rifaximin by agar dilution, S sonnei isolate; assay type: cell-based; details: Shigella sonnei
Protocol: as §1

MMP-9 in EAEC isolates = assay: Matrix metalloproteinase-9 detection by gelatin zymography, EAEC; assay type: cell-based, Escherichia coli
Protocol: Matrix Metalloproteinase-9 Detection Expression of matrix metalloproteinase-9 (MMP-9) was analyzed using gelatin zymography in all viable EAEC and S. sonnei isolates growing on MacConkey agar. Isolates were suspended in 1 mL of 0.1 M phosphate buffered saline (pH 7.2) and centrifuged at 1000 g for 10 minutes at 4° C. The supernatant was subjected to gelatin zymography to detect MMP-9 activity using a modified Heussen and Dowdle protocol (9). In summary, the supernatant was diluted 1:2 in a sample buffer (125 mM Tris-HCl, pH 6.8, 20% glycerol, 4% sodium dodecyl sulfate, 0.02% bromphenol blue), and 20 μL was loaded on to a 10% SDS-PAGE gel containing 1 mg/mL gelatin. Prestained standard proteins were used as molecular weight markers. After electrophoresis, gels were rinsed with incubation buffer (2.5% triton X-100, 50 mM Tris-HCl, pH 7.4, 0.02% Brij 35, 10 mM CaCl2, 2 μM ZnCl2) for 1 hour at room temperature to remove SDS. Gels were then incubated overnight at 37° C. and subsequently stained with Coomassie brilliant blue R-250 (Thermo Fisher Scientific, Inc, Rockford, Ill.). […] Matrix metalloproteinase-9 was identified among all gelatinolytic proteins by size.

C difficile = details: cited from earlier work
EAEC = details: previously established in the applicant's laboratory; cited from earlier work
HEp-2 cells = assay: Cytokine arrays of HEp-2 supernatants (Panomics); details: antibiotic 64 μg/ml, 24 h
EAEC isolates = assay: Isolate viability after rifaximin exposure, EAEC
[8] = 201 isolates, Canada, 1992 to 2007

SMILES: CO[C@H]1/C=C/O[C@@]2(C)Oc3c(C)c(O)c4c(O)c(c5c(nc6cc(C)ccn65)c4c3C2=O)NC(=O)/C(C)=C\C=C\[C@H](C)[C@H](O)[C@@H](C)[C@@H](O)[C@@H](C)[C@H](OC(C)=O)[C@@H]1C [Rifaximin, (2S,16Z,18E,20S,21S,22R,23R,24R,25S,26S,27S,28E)-5,6,21,23,25 Pentahydroxy-27-methoxy-2,4,11,16,20,22,24,26-octamethyl-2,7-(epoxypentadeca-(1,11,13)trienimino)benzofuro (4,5-e) pyrido(1,2,-a) benzimidazole-1,15(2H)-dione,25-acetate]
- EAEC O42 adherence to HEp-2 cells (microscopy) [1]: greatly reduced
- EAEC adherence to HEp-2 cells (CFU, % of total bacteria added) [2]: significantly lower; also recorded: significantly reduced; also recorded: reduced EAEC adherence
- EAEC bacterial counts in the supernatants ([2]; HEp-2 cells pretreated 24 h, EAEC 3 h): No differences in bacterial counts
- EAEC adherence to HeLa cells [3]: significantly reduced
- EAEC adherence to A549 cells [4]: significantly reduced
- adherence of B. anthracis [5]: significant reductions
- internalization of B. anthracis ([5]; then gentamicin 100 μg/ml 1 h): significant reductions
- EAEC adherence after mixing with dialyzed supernatants of antibiotic-treated HEp-2 cells [6]: adhered poorly
- MIC ([7]; read-out: MIC, ETEC, 2 ETEC isolates): 128 µg/mL (≈ 163 µM)
- MIC ([7]; read-out: MIC, all ETEC and EAEC isolates, 5 ETEC and 2 EAEC isolates): 64 to 128 µg/mL (≈ 81.4 to 163 µM)
- MIC (S sonnei isolate): 16 µg/mL (≈ 20.4 µM)
- MMP-9 expression by EAEC isolates (MMP-9 in EAEC isolates; rifaximin 8 mg/L for 4 and 8 hours): expressed MMP-9
- MMP-9 expression by EAEC isolates (MMP-9 in EAEC isolates; rifaximin 8 mg/L for 24 hours): undetectable
- MMP-9 expression by EAEC isolates (MMP-9 in EAEC isolates; rifaximin 8 mg/L, 18-hour time point): one EAEC isolate produced MMP-9, but the other isolate did not
- MMP-9 expression by EAEC isolates (MMP-9 in EAEC isolates; rifaximin 32 or 64 mg/L for 4, 8, or 18 hours): undetectable
- isolates with MIC values >2 μg/mL (C difficile; 201 C difficile isolates): 4%
- MIC50 against C difficile (C difficile; [8]): 0.008 µg/mL (≈ 0.0102 µM)
- MIC90 against C difficile (C difficile; [8]): 0.015 µg/mL (≈ 0.0191 µM)
- MIC50 for EAEC (EAEC): 64 µg/mL
- cytokine profile of HEp-2 supernatants (HEp-2 cells): contained detectable levels of RANTES and IL-4 only; also recorded: reduced the expression of various proinflammatory cytokines
- EAEC viability after exposure (EAEC isolates; rifaximin 8 mg/L for 24 hours): viable
- EAEC viability after exposure (EAEC isolates; rifaximin 8, 32, and 64 mg/L at 4, 8, and 18 hours): viable
- EAEC viability after exposure (EAEC isolates; rifaximin 32 and 64 mg/L for 24 hours): no viable isolates were recovered
